Tests used:
Assay in all cases: biochemical
Parameters in all cases: ExpresS Diversity kinase profile (Eurofins Cerep P10), per cent inhibition
Conditions in all cases: read-out: Inhibition of reference binding (Table 4)
CDK2 = CDK2 (Homo sapiens, UniProt P24941)
KDR = KDR (Homo sapiens, UniProt P35968)
TAOK2 = TAOK2 (Homo sapiens, UniProt Q9UL54)
Fms/CSFR kinase = biological target: T1, Fms/CSFR kinase (Homo sapiens, UniProt P07333)
T1 construct: gene CSF1R

GSK3β = biological target: T2, GSK3β (Homo sapiens, UniProt P49841)
T2 construct: gene GSK3B

MARK1 = MARK1 (Homo sapiens, UniProt Q9P0L2)
SGK1 = SGK1 (Homo sapiens, UniProt O00141)
FGFR3 kinase = FGFR3 kinase (Homo sapiens, UniProt P22607)
IKKα = biological target: T3, IKKα (Homo sapiens, UniProt O15111)
T3 construct: gene CHUK

CDC2/CDK1 = CDC2/CDK1 (Homo sapiens, UniProt P06493)
RAF-1 kinase = biological target: T4, RAF-1 kinase (Homo sapiens, UniProt P04049)
T4 construct: gene RAF1

p38α kinase = biological target: T5, p38α kinase (Homo sapiens, UniProt Q16539)
T5 construct: gene MAPK14

PAK2 = PAK2 (Homo sapiens, UniProt Q13177)
EGFR kinase = EGFR kinase (Homo sapiens, UniProt P00533)
CaMK2α = biological target: T6, CaMK2α (Homo sapiens, UniProt Q9UQM7)
T6 construct: gene CAMK2A

ROCK1 = ROCK1 (Homo sapiens, UniProt Q13464)
c-Met kinase = c-Met kinase (Homo sapiens, UniProt P08581)
CHK2 = biological target: T7, CHK2 (Homo sapiens, UniProt O96017)
T7 construct: gene CHEK2

PKA = biological target: T8, PKA (Homo sapiens, UniProt P17612)
T8 construct: gene PRKACA

MNK2 = biological target: T9, MNK2 (Homo sapiens, UniProt Q9HBH9)
T9 construct: gene MKNK2

SIK = biological target: T10, SIK (Homo sapiens, UniProt P57059)
T10 construct: gene SIK1

IRK = biological target: T11, IRK (Homo sapiens, UniProt P06213)
T11 construct: gene INSR; insulin receptor kinase

EphA3 kinase = EphA3 kinase (Homo sapiens, UniProt P29320)
JAK3 = JAK3 (Homo sapiens, UniProt P52333)
Src kinase = Src kinase (Homo sapiens, UniProt P12931)
PLK1 = PLK1 (Homo sapiens, UniProt P53350)
PKCbeta 2 = biological target: T12, PKCbeta 2 (Homo sapiens, UniProt P05771)
T12 construct: gene PRKCB; isoform beta 2

Pim2 kinase = Pim2 kinase (Homo sapiens, UniProt Q9P1W9)
Pim2 kinase, sequence (Q9P1W9 whole entry): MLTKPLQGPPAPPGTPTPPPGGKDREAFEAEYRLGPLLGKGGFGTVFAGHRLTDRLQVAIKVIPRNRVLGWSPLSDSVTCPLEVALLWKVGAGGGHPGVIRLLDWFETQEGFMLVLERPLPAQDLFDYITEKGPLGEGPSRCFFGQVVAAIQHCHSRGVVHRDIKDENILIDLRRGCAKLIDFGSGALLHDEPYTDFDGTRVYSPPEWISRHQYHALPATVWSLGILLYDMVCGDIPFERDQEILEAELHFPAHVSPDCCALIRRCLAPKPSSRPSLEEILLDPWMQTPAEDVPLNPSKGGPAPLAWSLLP

T4 sequence (P04049 whole entry): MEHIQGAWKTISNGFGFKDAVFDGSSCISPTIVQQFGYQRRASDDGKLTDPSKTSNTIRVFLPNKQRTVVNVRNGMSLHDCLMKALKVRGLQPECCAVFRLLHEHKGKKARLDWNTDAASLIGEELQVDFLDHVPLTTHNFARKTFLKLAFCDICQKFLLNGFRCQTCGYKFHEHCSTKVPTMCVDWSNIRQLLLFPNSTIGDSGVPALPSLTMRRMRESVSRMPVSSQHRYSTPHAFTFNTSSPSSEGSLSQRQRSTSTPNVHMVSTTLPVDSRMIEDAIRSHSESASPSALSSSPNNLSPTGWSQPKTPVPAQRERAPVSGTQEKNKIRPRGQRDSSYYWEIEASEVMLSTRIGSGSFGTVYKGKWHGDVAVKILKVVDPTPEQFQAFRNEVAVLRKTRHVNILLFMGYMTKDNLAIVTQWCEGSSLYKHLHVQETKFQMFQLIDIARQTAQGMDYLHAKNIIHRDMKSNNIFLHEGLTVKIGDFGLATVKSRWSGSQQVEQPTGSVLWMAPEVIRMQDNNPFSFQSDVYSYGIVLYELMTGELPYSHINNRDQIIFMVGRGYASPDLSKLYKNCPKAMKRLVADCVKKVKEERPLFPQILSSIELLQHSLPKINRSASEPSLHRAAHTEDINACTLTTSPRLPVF
EphA3 kinase, sequence (P29320 whole entry): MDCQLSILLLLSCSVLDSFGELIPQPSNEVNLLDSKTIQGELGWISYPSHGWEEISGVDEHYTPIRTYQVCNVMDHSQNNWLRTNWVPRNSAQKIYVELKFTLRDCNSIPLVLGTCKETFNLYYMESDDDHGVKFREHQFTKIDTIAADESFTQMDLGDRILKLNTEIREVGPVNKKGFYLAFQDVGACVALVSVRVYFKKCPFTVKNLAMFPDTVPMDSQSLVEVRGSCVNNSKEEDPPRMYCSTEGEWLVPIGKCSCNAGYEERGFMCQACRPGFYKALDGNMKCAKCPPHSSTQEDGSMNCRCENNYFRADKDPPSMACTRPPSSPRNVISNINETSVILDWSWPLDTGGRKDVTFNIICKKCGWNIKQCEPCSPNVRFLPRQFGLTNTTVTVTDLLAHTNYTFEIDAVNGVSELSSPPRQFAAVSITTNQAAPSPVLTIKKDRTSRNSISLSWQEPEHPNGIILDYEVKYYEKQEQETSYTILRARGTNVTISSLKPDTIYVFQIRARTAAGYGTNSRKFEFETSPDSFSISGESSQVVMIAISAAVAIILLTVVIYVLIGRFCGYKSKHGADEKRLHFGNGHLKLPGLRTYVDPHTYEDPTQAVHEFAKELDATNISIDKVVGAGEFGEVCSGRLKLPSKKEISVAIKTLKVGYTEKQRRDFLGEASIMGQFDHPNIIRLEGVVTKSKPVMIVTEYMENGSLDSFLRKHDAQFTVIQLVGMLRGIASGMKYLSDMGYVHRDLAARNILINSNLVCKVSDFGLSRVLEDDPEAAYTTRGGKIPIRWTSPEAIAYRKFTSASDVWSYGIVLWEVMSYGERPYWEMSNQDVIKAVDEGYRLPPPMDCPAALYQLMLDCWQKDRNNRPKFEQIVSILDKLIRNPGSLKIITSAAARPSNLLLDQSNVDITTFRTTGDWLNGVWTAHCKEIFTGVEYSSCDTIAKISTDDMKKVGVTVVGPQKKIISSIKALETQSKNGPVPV
SGK1, sequence (O00141 whole entry): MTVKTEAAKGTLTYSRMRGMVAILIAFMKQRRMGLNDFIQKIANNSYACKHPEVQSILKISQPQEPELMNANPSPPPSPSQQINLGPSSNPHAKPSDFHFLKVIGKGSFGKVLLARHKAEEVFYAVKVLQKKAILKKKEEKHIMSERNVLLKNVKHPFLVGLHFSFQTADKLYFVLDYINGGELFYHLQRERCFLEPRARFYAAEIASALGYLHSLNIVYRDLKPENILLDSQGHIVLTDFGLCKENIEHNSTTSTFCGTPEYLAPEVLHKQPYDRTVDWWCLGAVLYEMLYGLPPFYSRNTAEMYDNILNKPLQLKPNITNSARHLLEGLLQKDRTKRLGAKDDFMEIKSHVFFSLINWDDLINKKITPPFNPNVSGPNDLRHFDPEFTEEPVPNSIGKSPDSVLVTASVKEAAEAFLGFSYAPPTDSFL
T10 sequence (P57059 whole entry): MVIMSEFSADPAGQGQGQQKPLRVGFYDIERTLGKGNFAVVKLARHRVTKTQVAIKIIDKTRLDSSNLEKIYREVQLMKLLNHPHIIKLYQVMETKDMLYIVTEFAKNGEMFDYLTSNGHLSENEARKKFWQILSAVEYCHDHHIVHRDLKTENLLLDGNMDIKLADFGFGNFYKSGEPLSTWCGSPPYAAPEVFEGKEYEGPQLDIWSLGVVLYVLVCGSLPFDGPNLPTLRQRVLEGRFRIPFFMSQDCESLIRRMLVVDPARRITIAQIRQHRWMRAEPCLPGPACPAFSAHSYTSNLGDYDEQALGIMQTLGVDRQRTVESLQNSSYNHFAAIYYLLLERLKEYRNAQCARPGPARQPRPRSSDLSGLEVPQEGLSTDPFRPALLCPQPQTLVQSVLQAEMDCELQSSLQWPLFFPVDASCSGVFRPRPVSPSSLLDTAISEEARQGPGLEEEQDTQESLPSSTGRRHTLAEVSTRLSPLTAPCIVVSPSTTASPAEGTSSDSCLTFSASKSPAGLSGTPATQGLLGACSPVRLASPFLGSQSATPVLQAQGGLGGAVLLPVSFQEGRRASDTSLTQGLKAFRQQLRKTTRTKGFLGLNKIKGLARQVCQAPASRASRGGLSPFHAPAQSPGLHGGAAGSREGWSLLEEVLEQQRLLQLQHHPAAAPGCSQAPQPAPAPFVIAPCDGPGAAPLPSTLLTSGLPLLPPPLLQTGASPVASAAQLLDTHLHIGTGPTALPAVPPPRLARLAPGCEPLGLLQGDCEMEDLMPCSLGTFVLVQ
CDC2/CDK1, sequence (P06493 whole entry): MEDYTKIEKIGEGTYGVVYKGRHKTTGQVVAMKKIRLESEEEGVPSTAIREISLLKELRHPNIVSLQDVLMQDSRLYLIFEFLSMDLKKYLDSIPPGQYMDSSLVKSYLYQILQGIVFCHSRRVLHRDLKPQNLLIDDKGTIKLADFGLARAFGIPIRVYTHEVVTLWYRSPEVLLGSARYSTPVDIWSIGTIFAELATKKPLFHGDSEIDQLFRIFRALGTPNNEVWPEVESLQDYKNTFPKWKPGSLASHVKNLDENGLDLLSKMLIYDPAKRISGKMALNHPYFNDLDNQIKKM
CDC2/CDK1, sequence (P14635 whole entry partner): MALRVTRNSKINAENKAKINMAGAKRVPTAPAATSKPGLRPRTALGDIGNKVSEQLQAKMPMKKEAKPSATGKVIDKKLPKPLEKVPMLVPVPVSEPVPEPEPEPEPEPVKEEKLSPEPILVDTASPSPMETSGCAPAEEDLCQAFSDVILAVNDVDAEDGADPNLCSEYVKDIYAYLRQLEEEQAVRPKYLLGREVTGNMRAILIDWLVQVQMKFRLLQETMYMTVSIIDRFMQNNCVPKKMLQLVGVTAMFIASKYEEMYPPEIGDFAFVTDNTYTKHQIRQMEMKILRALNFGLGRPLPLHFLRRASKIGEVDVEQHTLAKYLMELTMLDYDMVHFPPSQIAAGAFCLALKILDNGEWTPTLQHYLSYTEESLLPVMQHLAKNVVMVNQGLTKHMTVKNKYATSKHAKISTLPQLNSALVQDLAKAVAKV
T12 sequence (P05771 whole entry, canonical isoform): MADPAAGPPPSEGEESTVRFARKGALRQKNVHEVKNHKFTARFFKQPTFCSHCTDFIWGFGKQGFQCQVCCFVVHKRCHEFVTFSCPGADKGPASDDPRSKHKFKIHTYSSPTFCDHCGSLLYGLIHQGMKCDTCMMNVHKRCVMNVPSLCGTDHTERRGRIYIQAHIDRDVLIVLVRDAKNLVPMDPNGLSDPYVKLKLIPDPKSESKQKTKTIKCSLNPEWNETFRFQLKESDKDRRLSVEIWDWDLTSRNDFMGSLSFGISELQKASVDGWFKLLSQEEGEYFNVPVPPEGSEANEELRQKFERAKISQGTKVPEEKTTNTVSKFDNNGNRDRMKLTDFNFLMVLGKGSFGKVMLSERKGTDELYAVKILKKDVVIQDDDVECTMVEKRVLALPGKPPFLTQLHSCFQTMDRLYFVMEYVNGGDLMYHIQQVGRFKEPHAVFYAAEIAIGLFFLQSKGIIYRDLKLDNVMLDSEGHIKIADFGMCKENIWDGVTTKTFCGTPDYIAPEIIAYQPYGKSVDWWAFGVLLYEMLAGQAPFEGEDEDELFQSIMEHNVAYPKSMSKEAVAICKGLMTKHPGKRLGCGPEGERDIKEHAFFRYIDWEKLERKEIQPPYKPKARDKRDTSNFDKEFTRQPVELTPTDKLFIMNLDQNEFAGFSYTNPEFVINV
T2 sequence (P49841 whole entry): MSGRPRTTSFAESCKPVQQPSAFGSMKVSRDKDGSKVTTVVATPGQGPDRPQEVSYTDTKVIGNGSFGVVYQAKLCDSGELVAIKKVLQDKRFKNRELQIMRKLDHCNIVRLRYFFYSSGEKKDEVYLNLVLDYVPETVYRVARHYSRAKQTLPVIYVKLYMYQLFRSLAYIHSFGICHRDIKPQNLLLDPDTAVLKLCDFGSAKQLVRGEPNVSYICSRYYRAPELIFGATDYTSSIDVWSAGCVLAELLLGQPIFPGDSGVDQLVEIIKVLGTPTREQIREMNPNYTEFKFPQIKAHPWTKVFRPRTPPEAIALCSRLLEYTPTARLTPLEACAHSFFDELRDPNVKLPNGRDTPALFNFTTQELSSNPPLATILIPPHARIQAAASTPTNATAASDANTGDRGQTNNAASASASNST

inhibition at 10 µM (CDK2): 33% | inhibition at 10 µM (KDR): -6% | inhibition at 10 µM (TAOK2): 33% | inhibition at 10 µM (Fms/CSFR kinase): 1% | inhibition at 10 µM (GSK3β): 0% | inhibition at 10 µM (MARK1): 13% | inhibition at 10 µM (SGK1): 16% | inhibition at 10 µM (FGFR3 kinase): 33% | inhibition at 10 µM (IKKα): 20% | inhibition at 10 µM (CDC2/CDK1): 26% | inhibition at 10 µM (RAF-1 kinase): 11% | inhibition at 10 µM (p38α kinase): 23% | inhibition at 10 µM (PAK2): -8% | inhibition at 10 µM (EGFR kinase): 4% | inhibition at 10 µM (CaMK2α): 6% | inhibition at 10 µM (ROCK1): 2% | inhibition at 10 µM (c-Met kinase): 0% | inhibition at 10 µM (CHK2): 6% | inhibition at 10 µM (PKA): 7% | inhibition at 10 µM (MNK2): -7% | inhibition at 10 µM (SIK): -6% | inhibition at 10 µM (IRK): -4% | inhibition at 10 µM (EphA3 kinase): 0% | inhibition at 10 µM (JAK3): -3% | inhibition at 10 µM (Src kinase): -4% | inhibition at 10 µM (PLK1): -5% | inhibition at 10 µM (PKCbeta 2): 1% | inhibition at 10 µM (Pim2 kinase): 19%
Structure (SMILES): O=C(Nc1cc(Cl)ccc1O)c1cccc(S(=O)(=O)N2CCCCC2)c1 [compound 66, BDT001]

From article PMC5847526, “Inhibition of neuronal FLT3 receptor tyrosine kinase alleviates peripheral neuropathic pain in mice” (Nature Communications, 2018)
